Reference: patent US11357873B2, “Chiral cyclen compounds and their uses” (THE HONG KONG POLYTECHNIC UNIVERSITY, priority 2016, dated 2022)

Assays:
[1] = Absorption and photoluminescence (quantum yield, lifetime, q); format: physicochemical; parameters: λabs(max): unit not given here; settings: for R, I(5D0 → 7F2)/I(5D0 → 7F1): asymmetry ratio, 10 in MeOH; for R, I(5D0 → 7F2)/I(5D0 → 7F1) / λabs(max): room temperature, 11 in DMSO; for q (Parker's) / q (Horrocks'): from lifetimes in H2O and D2O; for q (Parker's): first value of cell; for q (Horrocks'): second value of cell; for ΦEuEu (%): intrinsic quantum yield, calculated value; for τD2O/MeOD / τH2O/MeOH: luminescence lifetime, 5D0 → 7F2 transition; for τD2O/MeOD: D2O (MeOD for 10); for τH2O/MeOH: H2O (MeOH for 10); for ΦDMSO (%): luminescence quantum yield in DMSO; for ΦH2O/MeOH (%): luminescence quantum yield relative to quinine sulfate in 0.1M H2SO4, H2O (MeOH for 10, insoluble in H2O); for ΦHEPES (%): luminescence quantum yield, 0.1M HEPES buffer, pH 7.4; for λabs(max): 10 measured in MeOH; for ηsens (%): sensitization efficiency, calculated according to ref 61
Procedure: (§1) Absorption spectra of complexes were measured with HP UV-8453 spectrophotometer. Steady-state room temperature photoluminescence measurements were performed with an Edinburgh Instrument FLSP920 spectrophotometer equipped with a Xe900 continuous xenon lamp, μF920 microsecond flash lamp and a single photon counting photomultiplier tube. Spectra were corrected with the bundled F900 software. Solution-state measurements were conducted using quartz curettes of 10 mm path length. CPL measurements were conducted on a custom built spectrometer^63 (in Durham University) consisting of a laser driven light source (Energetiq EQ-99 LDLS, spectral range 170 to 2100 nm) coupled to an Acton SP2150 monochromator (600 g/nm, 300 nm Blaze) that allows excitation wavelengths to be selected with a 6 nm FWHM band-pass. The collection of the emitted light was facilitated (90° angle set up, 1 cm path length quartz curette) by a Lock-In Amplifier (Hinds Instruments Signaloc 2100) and Photoelastic Modulator (Hinds Instruments PEM-90). The differentiated light was focused onto an Acton SP2150 monochromator (1200 g/nm, 500 nm Blaze) equipped with a high sensitivity cooled Photo Multiplier Tube (H10723-20 Extended red-multialkali PMT based photosensor (5V)). Spectra were recorded using a 5 spectral average sequence in the range of 570-720 nm with 0.5 nm spectral intervals and 500 μs integration time. The recorded CPL spectrum underwent a 25% Fourier transformation smoothening protocol using Origin 8.0 Software (Origin Labs) to enhance appearance (all calculations were carried out using raw spectral data).
The shift in absorption is caused by electronic communication between the electropositive lanthanide center and the chromophore. […] These are not observed for 11, however, as we believe the steric effect of the planar phenyl ring of the benzyl group could not be alleviated by appropriate rotation, whereas that of the isobutyl group could.
The luminescence quantum yields of the complexes are decent in water and HEPES solution, although they are much higher in DMSO, due to the nonradiative quenching by O—H oscillators of water molecules in the second coordination sphere (Table 6). The intrinsic quantum yields^61—a calculated value evaluating the quantum yield of Eu(III) via direct metal excitation—of the complexes are calculated, and, as expected, the values are very similar, except for 10. The higher value corroborates with the shift in absorption maximum, for which we believe the reason is due to a shorter europium—chromophore distance and better interaction. On the other hand, the sensitization efficiencies of the complexes vary. […] The relatively remarkable ηsens of 13 is attributed to its structural rigidity, as both the tetraaza backbone and the acetate arms are modified with a chrial substituent, i.e., double chirality. The double chirality is also attributed for the increase in luminescence quantum yield compared to that of 12a/12b.

[2] = Circularly polarized luminescence (CPL), dissymmetry factor glum; format: physicochemical; settings: for glum ΔJ = 1 (λ) DMSO / glum ΔJ = 3 (λ) DMSO / glum ΔJ = 1 (λ) H2O / glum ΔJ = 3 (λ) H2O: wavelength in parentheses in the cell
Procedure: as §1, with “Steady-state” for “Absorption spectra of complexes were measured with HP UV-8453 spectrophotometer. Steady-state”, “time.” for “time. The recorded CPL spectrum underwent a 25% Fourier transformation smoothening protocol using Origin 8.0 Software (Origin Labs) to enhance appearance (all calculations were carried out using raw spectral data).”

SMILES: COc1cc(OC)c(C#Cc2cc(CN3CCN(CC(=O)[O-])CCN(CC(=O)[O-])CCN(CC(=O)[O-])CC3)nc(P(C)(=O)[O-])c2)c(OC)c1.[Eu+3] [Complex 7]
- R, I(5D0 → 7F2)/I(5D0 → 7F1) [1]: 2.52
- q (Parker's) [1]: 0.06
- q (Horrocks') [1]: 0.01
- ΦEuEu (%) [1]: 23.6%
- τD2O/MeOD [1]: 1.44 ms
- τH2O/MeOH [1]: 1.01 ms
- ΦDMSO (%) [1]: 47.0%
- ΦH2O/MeOH (%) [1]: 7.6%
- ΦHEPES (%) [1]: 6.9%
- λabs(max) [1]: 353
- ηsens (%) [1]: 32.3%

SMILES: CC[C@H]1CN(CC(=O)[O-])[C@@H](CC)CN(Cc2cc(C#Cc3c(OC)cc(OC)cc3OC)cc(P(C)(=O)[O-])n2)[C@@H](CC)CN(CC(=O)[O-])[C@@H](CC)CN1CC(=O)[O-].[Eu+3] [Complex 8]
- R, I(5D0 → 7F2)/I(5D0 → 7F1) [1]: 2.43
- q (Parker's) [1]: 0.10
- q (Horrocks') [1]: 0.02
- ΦEuEu (%) [1]: 26.0%
- τD2O/MeOD [1]: 1.76 ms
- τH2O/MeOH [1]: 1.12 ms
- ΦDMSO (%) [1]: 50.0%
- ΦH2O/MeOH (%) [1]: 14.0%
- ΦHEPES (%) [1]: 14.0%
- λabs(max) [1]: 356
- ηsens (%) [1]: 53.8%
- glum ΔJ = 1 (λ) DMSO [2]: −0.18 (591)
- glum ΔJ = 3 (λ) DMSO [2]: +0.17 (657)
- glum ΔJ = 1 (λ) H2O [2]: −0.11 (591)
- glum ΔJ = 3 (λ) H2O [2]: −0.28 (653)

SMILES: COc1cc(OC)c(C#Cc2cc(CN3CCN(C(C)C(=O)[O-])CCN(C(C)C(=O)[O-])CCN(C(C)C(=O)[O-])CC3)nc(P(C)(=O)[O-])c2)c(OC)c1.[Eu+3] (single isomer, unassigned) [Complex 12b]
- R, I(5D0 → 7F2)/I(5D0 → 7F1) ([1]; listed as 12b): 2.41
- q (Parker's) ([1]; listed as 12b): 0.11
- q (Horrocks') ([1]; listed as 12b): 0.03
- ΦEuEu (%) ([1]; listed as 12b): 24.9%
- τD2O/MeOD ([1]; listed as 12b): 1.77 ms
- τH2O/MeOH ([1]; listed as 12b): 1.04 ms
- ΦDMSO (%) ([1]; listed as 12b): 44.1%
- ΦH2O/MeOH (%) ([1]; listed as 12b): 10.2%
- ΦHEPES (%) ([1]; listed as 12b): 9.8%
- λabs(max) ([1]; listed as 12b): 355
- ηsens (%) ([1]; listed as 12b): 41.0%
- glum ΔJ = 1 (λ) DMSO ([2]; listed as 12b): −0.11 (591)
- glum ΔJ = 3 (λ) DMSO ([2]; listed as 12b): −0.10 (653)
- glum ΔJ = 1 (λ) H2O ([2]; listed as 12b): −0.04 (591)
- glum ΔJ = 3 (λ) H2O ([2]; listed as 12b): −0.11 (653)

SMILES: CCC1CN(C(C)C(=O)[O-])C(CC)CN(C(C)C(=O)[O-])C(CC)CN(C(C)C(=O)[O-])C(CC)CN1Cc1cc(C#Cc2c(OC)cc(OC)cc2OC)cc(P(C)(=O)[O-])n1.[Eu+3] (centres unmarked) [Complex 13]
- R, I(5D0 → 7F2)/I(5D0 → 7F1) [1]: 2.66
- q (Parker's) [1]: 0.00
- q (Horrocks') [1]: 0.06
- ΦEuEu (%) [1]: 30.2%
- τD2O/MeOD [1]: 1.83 ms
- τH2O/MeOH [1]: 1.25 ms
- ΦDMSO (%) [1]: 49.7%
- ΦH2O/MeOH (%) [1]: 21.9%
- ΦHEPES (%) [1]: 20.9%
- λabs(max) [1]: 356
- ηsens (%) [1]: 72.6%
- glum ΔJ = 1 (λ) DMSO [2]: −0.17 (588)
- glum ΔJ = 3 (λ) DMSO [2]: −0.29 (657)
- glum ΔJ = 3 (λ) H2O [2]: −0.33 (652)
- absolute glum 589 nm ([2]; aqueous solution): 0.23
